# Test results as given in paper PMC6943751 (The Journal of infectious diseases, 2014).
# What was measured:
# [1] = target: Neuraminidase (NA) of A/Washington/01/2007, NA-WT (Influenza A virus, UniProt A7UPN3); format: biochemical; settings: read-out: IC50, nM ± SD
# [2] = target: Neuraminidase (NA) of A/Taiwan/1/2013(H7N9) NA-WT (Influenza A virus, UniProt A0A024E3Q2); format: biochemical; settings: read-out: IC50, nM ± SD
smiles,measurement,setting,value
"CCC(CC)[C@H](NC(C)=O)[C@@H]1[C@H](O)[C@@H](C(=O)O)C[C@H]1N=C(N)N [Peramivir, peramivir]",IC50,[1],0.23 ± 0.03 nM
same,IC50,[2],0.08 ± 0.02 nM
